According to patent publication US10034886B2, “GLP-1 receptor modulators” (Celgene International II SÀRL, priority 2014, dated 2018):

Target: T1, GLP-1R (Homo sapiens, UniProt P43220)
T1 construct: host or cells: GLP-1R CRE-bla CHO-K1 cells
Test: EC20 GLP-1(9-36) PAM cAMP assay: dose response of compound in the presence of fixed concentration of GLP-1(9-36)
Format: cell-based
Conditions: GLP-1R CRE-bla CHO-K1 cells, compound dose response with fixed concentration of GLP-1(9-36), read-out: EC20 GLP-1(9-36) PAM EC50
Experimental: EC20 GLP-1(9-36) PAM cAMP Assay: Dose Response of Compound in the Presence of Fixed Concentration of GLP-1 (9-36).
GLP-1R CRE-bla CHO-K1 cells cultured in growth medium (DMEM-High glucose, 10% dialyzed FBS, 0.1 mM NEAA, 25 mM Hepes, 100 U/mL penicillin/100 μg/mL streptomycin, 5 μg/mL Blasticidin, 600 μg/mL Hygromycin) were trypsinized and plated in suspension into 384 well white flat bottom plates at 5000 cells/well in 12 μL assay buffer (Hanks Balanced Salt solution, 10 mM hepes, 0.1% BSA, pH 7.4). A 5× compound dose response curve (12-point) was generated in assay buffer containing 1.5 mM IBMX, 4% DMSO. GLP-1(9-36) was diluted to 4.2 μM in assay buffer containing 1.5 mM IMBX and 4% DMSO. The 5× compound dose response was added (3 μL), followed by 0.5 μL of GLP-1(9-36) and cells were incubated for 30 min at 37° C. Direct detection of cAMP was carried out using DiscoveRx HitHunter cAMP kit according to manufacturer's instructions and luminescence was read using a SpectraMax M5 plate reader. Luminescence was converted to total cAMP using a cAMP standard curve and data was analyzed by non-linear regression to determine the EC50 and Emax.
GLP-1(7-36): […]-NH2 (SEQ ID NO: 2). GLP-1(9-36): […]-NH2 (SEQ ID NO: 3). GLP-1(7-36) was purchased from GenScript. GLP-1(9-36) was purchased from Biopeptide Co., Inc.
The EC20GLP-1(9-36) PAM Activity range is denoted as follows: + denotes activity <0.8 μM, ++ denotes activity between 0.8 and 2.5 μM, +++ denotes activity between 2.5 and 5 μM, and ++++ denotes activity 5 to 10 μM.

T1 sequence (P43220 24-463): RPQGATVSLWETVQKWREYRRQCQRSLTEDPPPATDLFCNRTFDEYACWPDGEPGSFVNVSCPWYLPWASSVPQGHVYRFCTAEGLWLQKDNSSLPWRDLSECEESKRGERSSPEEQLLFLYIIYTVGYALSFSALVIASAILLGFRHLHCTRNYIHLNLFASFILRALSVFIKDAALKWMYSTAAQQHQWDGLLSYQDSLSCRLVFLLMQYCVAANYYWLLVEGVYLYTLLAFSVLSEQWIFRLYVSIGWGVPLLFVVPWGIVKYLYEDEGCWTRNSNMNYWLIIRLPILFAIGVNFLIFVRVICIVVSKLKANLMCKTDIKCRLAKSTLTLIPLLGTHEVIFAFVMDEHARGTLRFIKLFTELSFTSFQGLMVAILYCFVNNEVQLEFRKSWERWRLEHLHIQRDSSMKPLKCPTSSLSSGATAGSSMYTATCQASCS
T1 sequence (P01275 100-127 partner limits assumed): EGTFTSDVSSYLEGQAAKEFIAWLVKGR

Row | EC50 [nM] | Structure (SMILES)
1 | 800 to 2500 | CC(C)(C)c1ccc(C(=O)N[C@@H](Cc2ccc(-c3ncc(N4CCC(c5cccc(Br)c5)CC4)cn3)cc2)C(=O)N2CC(C(=O)O)C2)s1 [Compound 1488]
2 | < 800 | CCC[C@H]1CC[C@H](C2CCN(c3cnc(-c4ccc(C[C@H](NC(=O)c5ccc(C(C)(C)C)s5)C(=O)N[C@@H](CCCNC(=N)N)C(=O)O)cc4)nc3)CC2)CC1 [Compound 1465]
3 | < 800 | CC[C@H]1CC[C@H](c2ccc(-c3cnc(-c4ccc(C[C@H](NC(=O)c5ccc(C(C)(C)C)s5)C(=O)N[C@H](Cc5c[nH]cn5)C(=O)O)cc4)nc3)cc2)CC1 [Compound 1322]
4 | 800 to 2500 | CC(C)Oc1ccc(-c2ccc(-c3cnc(-c4ccc(C[C@H](NC(=O)c5ccc(C(C)(C)C)s5)C(=O)N[C@H](C)C(=O)O)cc4)nc3)cc2)cc1 [Compound 1295]
5 | 800 to 2500 | CC(C)c1ccc(-c2ccc(-c3cnc(-c4ccc(C[C@H](NC(=O)c5ccc(C(C)(C)C)s5)C(=O)O)cc4)nc3)c(F)c2)cc1 [Compound 1359]
6 | 5000 to 10000 | CC[C@H]1CC[C@H](c2ccc(-c3cnc(-c4ccc(C[C@@H](NC(=O)c5ccc(C(C)(C)C)s5)C(=O)N[C@H](C)C(=O)O)cc4)nc3)cc2)CC1 [Compound 1269]
7 | < 800 | CCC[C@H]1CC[C@H](C2CCN(c3cnc(-c4ccc(C[C@H](NC(=O)c5cnn(C(C)(C)C)c5)C(=O)N5CC(C(=O)O)C5)cc4)nc3)CC2)CC1 [Compound 1516]
8 | < 800 | CC[C@H]1CC[C@H](c2ccc(-c3cnc(-c4ccc(C[C@H](NC(=O)c5ccc(C(C)(C)C)nc5)C(=O)O)cc4)nc3)cc2)CC1 [Compound 1367]
9 | 800 to 2500 | CC(C)(C)c1ccc(C(=O)NC(Cc2ccc(-c3ncc(N4CCC(c5ccccc5F)CC4)cn3)cc2)C(=O)N2CC(C(=O)O)C2)s1 (centres unmarked) [Compound 1491]
10 | 2500 to 5000 | CCCc1cnc(C2CCN(c3cnc(-c4ccc(C[C@H](NC(=O)c5ccc(C(C)(C)C)s5)C(=O)N5CC(C(=O)O)C5)cc4)nc3)CC2)nc1 [Compound 1499]
11 | 800 to 2500 | CCCCOc1ccc(C(=O)N[C@@H](Cc2ccc(-c3ncc(-c4ccc(OCCCC(C)C)cc4)cn3)cc2)C(=O)N2CC(C(=O)O)C2)cc1 [Compound 1243]
12 | < 800 | CCC[C@H]1CC[C@H](C2CCN(c3cnc(-c4ccc(CC(NC(=O)c5ccc(C(C)(C)C)s5)C(=O)NS(=O)(=O)CCNC(=O)OC(C)(C)C)cc4)nc3)CC2)CC1 (some centres unmarked) [Compound 1548]
13 | 800 to 2500 | C[C@@H](NC(=O)[C@H](Cc1ccc(-c2ncc(-c3ccc(N4CCOCC4)cc3)cn2)cc1)NC(=O)c1ccc(C(C)(C)C)s1)C(=O)O [Compound 1307]
14 | < 800 | CCC[C@H]1CC[C@H](C2CCN(c3cnc(-c4ccc(C[C@H](NC(=O)c5ccc(C(C)(C)C)s5)C(=O)N[C@H](C)C(=O)O)cc4)nc3)CC2)CC1 [Compound 1437]
15 | < 800 | CC[C@H]1CC[C@H](c2ccc(-c3cnc(-c4ccc(C[C@H](NC(=O)c5ccc(C(C)(C)C)s5)C(=O)N[C@@H](CC(N)=O)C(=O)O)cc4)nc3)cc2)CC1 [Compound 1325]
16 | 800 to 2500 | CCCc1ccc(C2CCCN(c3cnc(-c4ccc(C[C@H](NC(=O)c5ccc(C(C)(C)C)s5)C(=O)N5CC(C(=O)O)C5)cc4)nc3)CC2)cc1 (some centres unmarked) [Compound 1507]
17 | < 800 | CC(C)(C)c1ccc(C(=O)N[C@@H](Cc2ccc(-c3ncc(-c4ccc(-c5ccc(OC(F)(F)F)cc5)cc4F)cn3)cc2)C(=O)O)s1 [Compound 1365]
18 | < 800 | CCC[C@H]1CC[C@H](C2CC(=O)N(c3cnc(-c4ccc(C[C@H](NC(=O)c5ccc(C(C)(C)C)s5)C(=O)N5CC(C(=O)O)C5)cc4)nc3)C(=O)C2)CC1 [Compound 1512]

Same assay, conditions: dose response of compound in presence of fixed concentration of GLP-1(9-36), GLP-1R CRE-bla CHO-K1 cells, read-out: EC20 GLP-1(9-36) PAM EC50

Row | Structure (SMILES) | EC50 [nM]
19 | CC(C)CCOc1ccc(-c2cnc(-c3ccc(C[C@H](NC(=O)c4ccc(C(C)(C)C)s4)C(=O)NC(C(=O)O)C(O)c4ccccc4)cc3)nc2)cc1 (some centres unmarked) [Compound 942] | 2500 to 5000
20 | Cc1ccc(/C=C/c2cnc(-c3ccc(C[C@H](NC(=O)c4ccc(C(C)(C)C)s4)C(=O)N4CC(C(=O)O)C4)cc3)nc2)cc1 [Compound 1091] | 800 to 2500
21 | COCCc1ccc(OCc2ccc(-c3cnc(-c4ccc(C[C@H](NC(=O)c5ccc(C(C)(C)C)s5)C(=O)N[C@H](C)C(=O)O)cc4)nc3)cc2)cc1 [Compound 1053] | 2500 to 5000
22 | C[C@@H](NC(=O)[C@H](Cc1ccc(-c2ncc(-c3ccc(-c4ccc(C(F)(F)F)cc4)cc3F)cn2)cc1)NC(=O)c1ccc(C(C)(C)C)s1)C(=O)O [Compound 1174] | < 800
23 | CC(C)(C)c1ccc(C(=O)N[C@@H](Cc2ccc(-c3ncc(-c4nc(-c5cccc(Cl)c5)no4)cn3)cc2)C(=O)NCCC(=O)O)cc1 [Compound 758] | 2500 to 5000
24 | CC[C@H]1CC[C@H](c2ccc(-c3cnc(-c4ccc(C[C@H](NC(=O)c5ccc(C(C)(C)C)s5)C(=O)O)cc4)nc3)cc2)CC1 [Compound 1058, (S)-2-(5-(tert-butyl)thiophene-2-carboxamido)-3-(4-(5-(4-((1r,4r)-4-ethylcyclohexyl)phenyl)pyrimidin-2-yl)phenyl)propanoic acid] | < 800
25 | C[C@@H](NC(=O)[C@H](Cc1ccc(-c2ncc(-c3ccc(OCc4ccccc4)nc3)cn2)cc1)NC(=O)c1ccc(C(C)(C)C)s1)C(=O)O [Compound 1040] | 5000 to 10000

Now from value to compound:

Row | EC50 [nM] | Structure (SMILES)
26 | 800 to 2500 | CCCCCCCOc1c(C)cc(-c2cnc(-c3ccc(C[C@H](NC(=O)c4ccc(C(C)(C)C)cc4)C(=O)NCCC(=O)O)cc3)nc2)cc1C [Compound 705]
27 | 5000 to 10000 | CCCCCCCOc1ccc(-c2cnc(-c3ccc(C[C@H](NC(=O)c4ccc(C(C)(C)C)s4)C(=O)NC(C(=O)O)[C@@H](C)c4ccccc4)cc3)nc2)cc1 (some centres unmarked) [Compound 897]
28 | 800 to 2500 | CCCCCCCc1ccc(-c2cnc(-c3ccc(C[C@H](NC(=O)c4ccc(C(C)(C)C)cc4)C(=O)N[C@H](C)C(=O)O)cc3)nc2)cc1 [Compound 724]
29 | 2500 to 5000 | CCCCCCCOc1ccc(-c2cnc(-c3ccc(C[C@H](NC(=O)Cc4ccc(OCCCC)cc4)C(=O)N[C@H](C)C(=O)O)cc3)nc2)cc1 [Compound 979]
30 | < 800 | CC[C@H]1CC[C@H](c2ccc(-c3cnc(-c4ccc(C[C@H](NC(=O)c5ccc(CC(C)C)s5)C(=O)N5CC(C(=O)O)C5)cc4)nc3)cc2)CC1 [Compound 1152]
31 | < 800 | CC(C)(C)c1ccc(C(=O)N[C@@H](Cc2ccc(-c3ncc(-c4ccc(OCCC5CCCCC5)cc4)cn3)cc2)C(=O)N2CC(C(=O)O)C2)s1 [Compound 945]
32 | < 800 | CCCCCCCOc1ccc(-c2cnc(-c3ccc(CC(NC(=O)c4ccc(C(C)(C)C)s4)C(=O)N[C@@H](Cc4c[nH]c5ccccc45)C(=O)O)cc3)nc2)cc1 (some centres unmarked) [Compound 432]
33 | 5000 to 10000 | CCCOc1ccc(-c2cnc(-c3ccc(C[C@H](NC(=O)c4ccc(C(C)(C)C)s4)C(=O)NC(C(=O)O)C(O)c4ccccc4)cc3)nc2)cc1 (some centres unmarked) [Compound 933]
34 | 800 to 2500 | CCCCCCCOc1ccc(-c2cnc(-c3ccc(C[C@H](NC(=O)c4ccc(C(C)C)cc4)C(=O)NC(C(=O)O)C(O)c4ccccc4)cc3)nc2)cc1 (some centres unmarked) [Compound 951]
35 | 2500 to 5000 | CCCCCCCOc1ccc(-c2nnc(-c3ccc(C[C@H](NC(=O)c4ccc(C(C)(C)C)cc4)C(=O)N[C@H](C)C(=O)O)cc3)s2)cc1 [Compound 802]
36 | 800 to 2500 | CCCCCCCOc1ccc(-c2cnc(-c3ccc(C[C@H](NC(=O)c4ccc(C(C)(C)C)s4)C(=O)N4CCNCC4C(=O)O)cc3)nc2)cc1 (some centres unmarked) [Compound 891]
37 | 800 to 2500 | CCCCCCCOc1ccc(-c2cnc(-c3ccc(C[C@H](NC(=O)c4ccc(OCC)cc4)C(=O)N4CC(C(=O)O)C4)cc3)nc2)cc1 [Compound 1114]
38 | 2500 to 5000 | CCCCCCCOc1ccc(-c2cnc(-c3ccc(C[C@H](NC(=O)c4ccc(C(C)(C)C)s4)C(=O)NC)cc3)nc2)cc1 [Compound 383]
39 | < 800 | CCCCCCCOc1ccc(-c2cnc(-c3ccc(C[C@H](NC(=O)c4ccc(C(C)(C)C)s4)C(=O)N4CC[C@H](C(=O)O)C4)cc3)nc2)nc1 [Compound 1065]
40 | < 800 | CC(C)(C)c1ccc(C(=O)N[C@@H](Cc2ccc(-c3ncc(-c4ccc(-c5cccc(Cl)c5)cc4F)cn3)cc2)C(=O)N2CC(C(=O)O)C2)s1 [Compound 1192]
41 | 800 to 2500 | CCCCCCCOc1ccc(-c2cnc(-c3ccc(C[C@H](NC(=O)c4ccc(OCCC)cc4)C(=O)N4CC[C@H](C(=O)O)C4)cc3)nc2)cc1 [Compound 1097]
42 | 2500 to 5000 | C=CCCOc1ccc(-c2cnc(-c3ccc(C[C@H](NC(=O)c4ccc(C(C)(C)C)cc4)C(=O)NCCC(=O)O)cc3)nc2)cc1 [Compound 694]
43 | 800 to 2500 | CCCCCCCOc1ccc(-c2cnc(-c3ccc(C[C@H](NC(=O)c4ccc(C(C)(C)C)cc4)C(=O)N[C@@H](CC(=O)O)C(=O)N(C)C)cc3)nc2)cc1 [Compound 503]
44 | 2500 to 5000 | CCCCCCCOc1ccc(-c2cnc(-c3ccc(C[C@H](NC(=O)c4ccc(C(C)(C)C)s4)C(=O)NCCCN4CCOCC4)cc3)nc2)cc1 [Compound 964]
